Data from patent US20230210116A1, “HONEYBEE REPELLENT” (EARTH CORPORATION, priority 2020, published 2023).

System: honeybees
Test: Test for Confirmation of Honeybee Repelling Effect 1, 2, 3 (feeding station with 40% sugar water)
Type: in vivo
Details: for Corrected repelling rate (%) Honeybees: Test 3, 5 mL
Description: The following were used as the test samples for Examples: 2% by weight per volume ethanol solutions of octane (a-1), tetradecane (a-2), heptadecane (a-3), nonadecane (a-4), 2-acetylfuran (b-1), 5-methyl-2-furaldehyde (b-2), furfural (b-3), furaneol (c-1), 2-acetylpyrrole (d-1), 1-benzylpyrrole (d-2), 1-octanol (e-1), 1-dodecanol (e-2), and 1-octadecanol (e-3), respectively; and 2% by weight per volume aqueous solutions of furfuryl alcohol (b-4), sotolon (c-2), and α-angelicalactone (c-3), respectively.
The following were used as the test samples for Comparative Examples: 2% by weight per volume ethanol solutions of eicosane (carbon number 20, p-1), heneicosane (carbon number 21, p-2), 2-methyloctane (branched alkane, p-3), tributyl o-acetylcitrate (p-4), and 1-methylpyrrole (p-5), respectively; and 2% by weight per volume aqueous solutions of 2-methyltetrahydrofuran-3-one (p-6) and acetic acid (p-7), respectively.
Ethanol alone and water alone were used as samples for correction.
The cotton pads 13 were impregnated with 40% sugar water (80 g), after which disposable wooden chopsticks 15 (80 mm in length) were placed over the cotton pads on the lid surface as “landing areas,” for use as “test insect (honeybee) feeding station 1” 10.
A nest box of test insects (honeybees) (1 colony: approx. 6,000 bees) was placed at the center of a glass hothouse (bottom face: 5 m×10 m, height (highest part): 3 m, temperature: 25° C.), and the aforementioned “test insect (honeybee) feeding station 1” was installed at a location 2 meters away from the nest box.
After confirming that at least five test insects (honeybees) were feeding at the above “test insect (honeybee) feeding station 1” installed in the hothouse, test 1 was conducted to measure the “approaching count (Mz)” and “landing count (My)” and calculate the “landing rate (Mx).”
Next, the “test insect (honeybee) feeding station 1” installed in the hothouse was replaced with each “test insect (honeybee) feeding station 2” which was let to stand still for 5 minutes, after which test 2 was conducted to measure the “approaching count (Nz)” and “landing count (Ny)” and calculate the “landing rate (Nx).”
Approaching count: Total number of times a honeybee has approached within 25 cm of the cotton wools at the feeding station during 5 minutes
Landing count: Total number of honeybees that have remained for at least 1 second on the cotton pads at the feeding station during 5 minutes
Landing rate (%): (Landing count/Approaching count)×100
The “repelling rate Q” and “corrected repelling rate R” were calculated from the above “landing rates” using the calculation formula below. For the “repelling rate of sample for correction” used to calculate the “corrected repelling rate R,” the repelling rate of each of the samples for correction above (ethanol alone or water alone being a solvent for the active ingredient) was used.
Repelling rate Q (%)={(Mx)−(Nx)}/(Mx)×100
Corrected repelling rate R (%)={Repelling rate of test sample−Repelling rate of sample for correction}/{100−Repelling rate of sample for correction}×100
The following were used as the test samples for Examples: 0.1% by weight per volume ethanol solutions of 3-methyl-2-butanol (e-4), carvacrol (x-1), isoeugenol (x-2), cinnamyl alcohol (x-3), diacetone alcohol (x-4), α-amylcinnamaldehyde (x-5), 3-methyl-2-butenal (x-6), valeraldehyde (x-7), ethyl cinnamate (x-8), methyl cinnamate (x-9), ethyl isovalerate (x-10), isoamyl formate (x-11), 5-ethyl-2-methylpyridine (x-12), 2-(3-phenylpropyl)pyridine (x-13), 2,6-dimethylpyridine (x-14), ß-ionone (x-15), 2-acetylthiazole (x-16), butylamine (x-17), and citronella oil (x-18), respectively; and a 0.1% by weight per volume aqueous solution of (3-amino-3-carboxypropyl)dimethylsulfonium chloride (x-19).

[1] = 0.1% by weight per volume solution
[2] = Test 2, honeybees, 0.1% by weight per volume solution, 5 mL (active ingredient 5 mg)
[3] = Test 1, honeybees, 2% by weight per volume solution, 5 mL sprayed (active ingredient 0.1 g)
[4] = 2.0% by weight per volume solution
[5] = Test 1, 2% by weight per volume solution

## Cc1cnc(C)c(C)n1 [y-55, 2,3,5-trimethylpyrazine]
[1]
  Corrected repelling rate (%) Honeybees: 80.6%

## CC=Cc1ccc(O)c(OC)c1 [x-2, isoeugenol]
[2]
  Corrected repelling rate R (%): 64.6%

## CC(=O)O [p-7, acetic acid, reference compound]
[3]
  Corrected repelling rate R (%): <0%

## CCCCCCCCCCCCO [e-2, 1-dodecanol]
[3]
  Corrected repelling rate R (%): 84.6%

## CCCCCCCC(=O)OCC [y-48, ethyl octanoate]
[4]
  Corrected repelling rate (%) Honeybees: 94.1%

## CCCCCCCCCCCCCCCCCCO [e-3, 1-octadecanol]
[3]
  Corrected repelling rate R (%): 16.2%

## Cc1ccc2ncccc2c1 [y-80, 6-methylquinoline]
[1]
  Corrected repelling rate (%) Honeybees: 74.7%

## O=C(O)c1ccnc2ccccc12 [y-82, 4-quinolinecarboxylic acid]
[1]
  Corrected repelling rate (%) Honeybees: 55.5%

## c1cnc2c(n1)CCCC2 [y-86, 5,6,7,8-tetrahydroquinoxaline]
[4]
  Corrected repelling rate (%) Honeybees: 73.2%

## CNc1ccccc1C(=O)OC [y-34, methyl N-methylanthranilate]
[1]
  Corrected repelling rate (%) Honeybees: 78.6%

## CCCCOC(=O)CCC [y-35, butyl butyrate]
[1]
  Corrected repelling rate (%) Honeybees: 61.7%

## CCOC(=O)Cc1ccccc1 [y-24, ethyl phenylacetate]
[4]
  Corrected repelling rate (%) Honeybees: 55.5%

## CC(C)CCOC(=O)CC(C)C [y-52, isoamyl isovalerate]
[4]
  Corrected repelling rate (%) Honeybees: 23.5%

## CCCCCCCCCCCCCCC(=O)OCC [y-40, ethyl pentadecanoate]
[1]
  Corrected repelling rate (%) Honeybees: 77.6%

## c1ccc2scnc2c1 [y-78, benzothiazole]
[1]
  Corrected repelling rate (%) Honeybees: 87.7%

## CCCCCCCC=O [y-12, n-octanal]
[1]
  Corrected repelling rate (%) Honeybees: 96.3%

## O=C(O)c1ccc(O)cc1 [y-77, 4-hydroxybenzoic acid]
[1]
  Corrected repelling rate (%) Honeybees: 80.1%

## CC(C)CO.CC(C)CO [e-5, 2-methyl-1-propanol (isobutanol)]
[1]
  Corrected repelling rate (%) Honeybees: 88.2%

## CCCC=O [y-15, butylaldehyde]
[1]
  Corrected repelling rate (%) Honeybees: 51.0%

## CCC(=O)O [p-8, propionic acid, reference compound]
[4]
  Corrected repelling rate (%) Honeybees: <0%

## CC(=O)c1ccccc1 [y-69, acetophenone]
[4]
  Corrected repelling rate (%) Honeybees: 98.9%

## O=Cc1ccco1 [b-3, furfural]
2 % strength
  Corrected repelling rate R (%): 93.6%

## CC(=O)c1ccc[nH]1 [d-1, 2-acetylpyrrole]
[5]
  repelling effect / repelled behaviors of honeybees (in words): excellent repelling effect
[3]
  Corrected repelling rate R (%): 37.0%

## CN1CCCC1 [y-92, 1-methylpyrrolidine]
[1]
  Corrected repelling rate (%) Honeybees: 25.9%

## Cc1cncc(C)n1 [y-60, 2,6-dimethylpyrazine]
[1]
  Corrected repelling rate (%) Honeybees: 35.4%

## CCc1cccnc1 [y-62, 3-ethylpyridine]
[4]
  Corrected repelling rate (%) Honeybees: 58.3%

## CC(=O)OC(C)(C)C1CC=C(C)CC1 (stereo not drawn) [y-29, terpinyl acetate]
[1]
  Corrected repelling rate (%) Honeybees: 81.2%

## CC(C)COC(=O)Cc1ccccc1 [y-21, isobutyl phenylacetate]
[1]
  Corrected repelling rate (%) Honeybees: 80.5%

## C=Cc1ccc(OC)cc1 [y-90, 4-methoxystyrene]
[4]
  Corrected repelling rate (%) Honeybees: 95.6%

## Cc1ccc(C=O)o1 [b-2, 5-methyl-2-furaldehyde]
[3]
  Corrected repelling rate R (%): 55.3%

## CC(=O)CC(C)(C)O [x-4, diacetone alcohol]
[2]
  Corrected repelling rate R (%): 20.9%

## CCCCCCCCCCCCCCCCCCCCC [p-2, heneicosane, reference compound]
[5]
  repelling effect / repelled behaviors of honeybees (in words): not observed at all
[3]
  Corrected repelling rate R (%): <0%

## CC(=O)OCCC(C)CCC=C(C)C (stereo not drawn) [y-30, citronellyl acetate]
[1]
  Corrected repelling rate (%) Honeybees: 91.1%

## CCc1nccnc1CC [y-56, 2,3-diethylpyrazine]
[1]
  Corrected repelling rate (%) Honeybees: 57.0%

## CCCCOC(=O)CC(CC(=O)OCCCC)(OC(C)=O)C(=O)OCCCC [p-4, tributyl o-acetylcitrate, reference compound]
[3]
  Corrected repelling rate R (%): <0%

## CC(=O)c1nccs1 [x-16, 2-acetylthiazole]
[2]
  Corrected repelling rate R (%): 61.7%

## CCCCCCC(C)C [p-3, 2-methyloctane, reference compound]
[5]
  repelling effect / repelled behaviors of honeybees (in words): not observed at all
[3]
  Corrected repelling rate R (%): <0%

## (−)-menthyl succinate [y-32]
[1]
  Corrected repelling rate (%) Honeybees: 57.7%

## Cc1cnccn1 [y-58, 2-methylpyrazine]
[1]
  Corrected repelling rate (%) Honeybees: 55.0%

## CC(=O)OCCC(C)C [y-53, isoamyl acetate]
[4]
  Corrected repelling rate (%) Honeybees: 23.0%

## CCCCSCCCC [y-94, butyl sulfide]
[4]
  Corrected repelling rate (%) Honeybees: 17.2%

## CC(=O)CC(C)=O [y-70, acetylacetone]
[1]
  Corrected repelling rate (%) Honeybees: 21.5%

## CC(=O)OCc1ccccc1 [y-19, benzyl acetate]
[1]
  Corrected repelling rate (%) Honeybees: 83.2%

## CSCCCO [y-3, methionol]
[4]
  Corrected repelling rate (%) Honeybees: 84.7%

## c1ccc(Cn2cccc2)cc1 [d-2, 1-benzylpyrrole]
[5]
  repelling effect / repelled behaviors of honeybees (in words): excellent repelling effect
[3]
  Corrected repelling rate R (%): 68.3%

## C/C=C(\C)C=O [y-13, trans-2-methyl-2-butenal]
[1]
  Corrected repelling rate (%) Honeybees: 67.4%

## Cc1cccc2nccnc12 [y-83, 5-methylquinoxaline]
[1]
  Corrected repelling rate (%) Honeybees: 78.7%

## CCCCCCCCCCCCCCCCCCC [a-4, nonadecane]
[3]
  Corrected repelling rate R (%): 56.7%

## Cc1cccc2c(C)cccc12 [y-89, 1,5-dimethylnaphthalene]
[1]
  Corrected repelling rate (%) Honeybees: 88.8%

## CCCCCCCCO [e-1, 1-octanol]
[3]
  Corrected repelling rate R (%): 58.3%

## CCC=O [y-11, propionaldehyde]
[1]
  Corrected repelling rate (%) Honeybees: 64.0%

## CCc1nccnc1C [y-59, 2-ethyl-3-methylpyrazine]
[1]
  Corrected repelling rate (%) Honeybees: 72.8%

## CCCCCCCCCCCCCCCCCC(=O)O [y-74, stearic acid]
[1]
  Corrected repelling rate (%) Honeybees: 33.7%

## CCCCCC(=O)O [y-72, hexanoic acid]
[1]
  Corrected repelling rate (%) Honeybees: 89.4%

## C/C=C(\C)C(=O)OC/C=C(\C)CCC=C(C)C [y-31, geranyl tiglate]
[1]
  Corrected repelling rate (%) Honeybees: 70.3%

## CC(=O)c1ccc(C)cc1 [y-68, 4-methylacetophenone]
[1]
  Corrected repelling rate (%) Honeybees: 84.3%

## CC(=O)/C=C/C1C(C)=CCCC1(C)C (stereo not drawn) [y-71, α-ionone]
[1]
  Corrected repelling rate (%) Honeybees: 90.0%

## CC1OCCC1=O (stereo not drawn) [p-6, 2-methyltetrahydrofuran-3-one, reference compound]
[5]
  repelling effect / repelled behaviors of honeybees (in words): not observed at all
[3]
  Corrected repelling rate R (%): <0%

## Cn1cccc1 [p-5, 1-methylpyrrole, reference compound]
[5]
  repelling effect / repelled behaviors of honeybees (in words): not observed at all
[3]
  Corrected repelling rate R (%): <0%

## CCCCCCCCCCCCCCCCCCCC [p-1, eicosane, reference compound]
[5]
  repelling effect / repelled behaviors of honeybees (in words): not observed at all
[3]
  Corrected repelling rate R (%): <0%

## CCCCCC(C=O)=Cc1ccccc1 [x-5, α-amylcinnamaldehyde]
[2]
  Corrected repelling rate R (%): 77.8%

## CC(CC=O)CCCC(C)(C)O (stereo not drawn) [y-9, hydroxycitronellal]
[4]
  Corrected repelling rate (%) Honeybees: 92.8%

## CCCCCCCCCCCCCCCCC [a-3, heptadecane]
[5]
  repelling effect / repelled behaviors of honeybees (in words): excellent repelling effect
[3]
  Corrected repelling rate R (%): 28.2%

## O=C1CCCO1 [y-64, γ-butyrolactone]
[1]
  Corrected repelling rate (%) Honeybees: 27.5%
